Data reported in ChEMBL document CHEMBL1135304, “Benzimidazole-based fXa inhibitors with improved thrombin and trypsin selectivity” (Bioorg Med Chem Lett, 2002).

What was measured:
Coagulation factor X = Coagulation factor X (Homo sapiens, UniProt P00742); test: Tested in vitro for the inhibitory potency against Coagulation factor Xa
Serine protease 1 = Serine protease 1 (Homo sapiens, UniProt P07477); test: Tested in vitro for the selectivity against trypsin (Trp)
Prothrombin = Prothrombin (Homo sapiens, UniProt P00734); test: Tested in vitro for the selectivity against thrombin (IIa)

Chain of Serine protease 1 (P07477 whole entry): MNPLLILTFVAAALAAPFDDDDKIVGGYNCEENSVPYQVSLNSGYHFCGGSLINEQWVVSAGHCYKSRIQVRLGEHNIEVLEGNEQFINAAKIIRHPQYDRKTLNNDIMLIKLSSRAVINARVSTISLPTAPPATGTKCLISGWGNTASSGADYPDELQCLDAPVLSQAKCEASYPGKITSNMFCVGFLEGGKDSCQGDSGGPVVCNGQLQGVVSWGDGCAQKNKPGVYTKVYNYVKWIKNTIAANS
Chain of Coagulation factor X (P00742 41-179 limits assumed): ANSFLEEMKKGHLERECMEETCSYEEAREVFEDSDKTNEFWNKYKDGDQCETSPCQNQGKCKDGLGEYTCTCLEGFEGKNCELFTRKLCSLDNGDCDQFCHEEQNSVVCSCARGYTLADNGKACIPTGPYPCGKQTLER
Chain of Coagulation factor X (P00742 235-488 limits assumed): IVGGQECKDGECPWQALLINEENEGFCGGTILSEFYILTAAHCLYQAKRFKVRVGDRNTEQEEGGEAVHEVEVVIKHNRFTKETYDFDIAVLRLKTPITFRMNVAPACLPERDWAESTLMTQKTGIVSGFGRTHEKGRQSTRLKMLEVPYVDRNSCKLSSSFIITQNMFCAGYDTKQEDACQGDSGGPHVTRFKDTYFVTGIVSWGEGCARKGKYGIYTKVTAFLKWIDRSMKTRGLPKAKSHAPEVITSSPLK

| Compound | Ki (Coagulation factor X) [nM] | Ki (Serine protease 1) [nM] | Ki (Prothrombin) [nM] |
| --- | --- | --- | --- |
| CCc1nc2c(N(C)C)c(OC3CCN(C(C)=N)CC3)ccc2n1Cc1ccc2ccc(C(=N)N)cc2c1 | 5 | 10 | > 5000 |
| CCc1nc2ccc(OC3CCN(C(C)=N)CC3)cc2n1Cc1ccc(-c2cccc(C(=N)N)c2)cc1 | 2.2 | 73 | 770 |
| CCc1nc2cc(OC3CCN(C(C)=N)CC3)ccc2n1Cc1ccc2ccc(C(=N)N)cc2c1 | – | 5 | 2000 |
| CCc1nc2cc(OC3CCN(C(C)=N)CC3)ccc2n1Cc1ccc(-c2ccc(C(=N)N)cc2)cc1 | 670 | 150 | 1500 |
| CCc1nc2c([N+](=O)[O-])c(OC3CCN(C(C)=N)CC3)ccc2n1Cc1ccc2ccc(C(=N)N)cc2c1 | 0.1 | 5 | 3000 |
| CCc1nc2ccc(OC3CCN(C(C)=N)CC3)cc2n1Cc1ccc(-c2ccc(C(=N)N)cc2)cc1 | 180 | 91 | 22 |
| CC(=N)N1CCC(Oc2ccc3c(nc(C)n3Cc3ccc4ccc(C(=N)N)cc4c3)c2[N+](=O)[O-])CC1 | – | 3 | > 5000 |
| CCc1nc2cc(OC3CCN(C(C)=N)CC3)ccc2n1Cc1cccc(-c2cccc(C(=N)N)c2)c1 | – | 67 | 1120 |
| CCc1nc2cc(OC3CCN(C(C)=N)CC3)ccc2n1Cc1cccc(-c2ccc(C(=N)N)cc2)c1 | 260 | 690 | > 5000 |
| CCc1nc2c(N)c(OC3CCN(C(C)=N)CC3)ccc2n1Cc1ccc2ccc(C(=N)N)cc2c1 | 8 | 24 | 3500 |
| CCc1nc2ccc(OC3CCN(C(C)=N)CC3)cc2n1Cc1cccc(-c2ccc(C(=N)N)cc2)c1 | 150 | 430 | 3600 |
| CCc1nc2c(NC(C)=O)c(OC3CCN(C(C)=N)CC3)ccc2n1Cc1ccc2ccc(C(=N)N)cc2c1 | 50 | 25 | > 5000 |
| CCc1nc2c(N(CC(=O)O)CC(=O)O)c(OC3CCN(C(C)=N)CC3)ccc2n1Cc1ccc2ccc(C(=N)N)cc2c1 | 50 | 15 | > 5000 |
| CCc1nc2ccc(OC3CCN(C(C)=N)CC3)cc2n1Cc1cccc(-c2cccc(C(=N)N)c2)c1 | 34 | 190 | 190 |
| CC(=N)N1CCC(Oc2ccc3c(nc(C(C)C)n3Cc3ccc4ccc(C(=N)N)cc4c3)c2[N+](=O)[O-])CC1 | 0.2 | 3 | > 5000 |
| CCc1nc2cc(OC3CCN(C(C)=N)CC3)ccc2n1Cc1ccc(-c2cccc(C(=N)N)c2)cc1 | 17 | 140 | 210 |
